Results from BindingDB's records for PubMed 11454901 (Shionogi, 2001).

Biological target: T1, Prostaglandin-H2 D-isomerase (Sus scrofa, UniProt Q29095)
T1 sequence (Q29095 whole entry): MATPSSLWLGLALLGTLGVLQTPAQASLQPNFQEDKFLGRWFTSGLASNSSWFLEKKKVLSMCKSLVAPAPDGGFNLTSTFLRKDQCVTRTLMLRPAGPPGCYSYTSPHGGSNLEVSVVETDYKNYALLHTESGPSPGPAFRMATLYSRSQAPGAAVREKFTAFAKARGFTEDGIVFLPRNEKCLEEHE

| SMILES | Ki |
| --- | --- |
| O=C(O)CCC/C=C\C[C@@H]1C(NS(=O)(=O)c2ccccc2)C2CC[C@@H]1C2 (single isomer, unassigned; (+)) [S 145] | 0.49 nM |
| CC1(C)[C@H]2C[C@H](C/C=C\CCCC(=O)O)[C@@H](NC(=O)c3csc4ccc(O)cc34)[C@@H]1C2 | 193 nM |
